Counter-ions that a name gives are not always drawn. Like-named read-outs stand apart in the source and are kept apart here.
What was measured:
CYP2D6 = CYP2D6 (Homo sapiens, UniProt P10635); test: Cytochrome P450 inhibition (Eurofins); settings: at 10 μM; listed as 17, 10 µM
Adrenergic α2B = biological target: T1, Adrenergic α2B (Homo sapiens, UniProt P18089); test: Eurofins SafetyScreen panel; type: binding
T1 construct: Eurofins (contract screening, SafetyScreen panel) PP223
T1 sequence (P18089 1-450): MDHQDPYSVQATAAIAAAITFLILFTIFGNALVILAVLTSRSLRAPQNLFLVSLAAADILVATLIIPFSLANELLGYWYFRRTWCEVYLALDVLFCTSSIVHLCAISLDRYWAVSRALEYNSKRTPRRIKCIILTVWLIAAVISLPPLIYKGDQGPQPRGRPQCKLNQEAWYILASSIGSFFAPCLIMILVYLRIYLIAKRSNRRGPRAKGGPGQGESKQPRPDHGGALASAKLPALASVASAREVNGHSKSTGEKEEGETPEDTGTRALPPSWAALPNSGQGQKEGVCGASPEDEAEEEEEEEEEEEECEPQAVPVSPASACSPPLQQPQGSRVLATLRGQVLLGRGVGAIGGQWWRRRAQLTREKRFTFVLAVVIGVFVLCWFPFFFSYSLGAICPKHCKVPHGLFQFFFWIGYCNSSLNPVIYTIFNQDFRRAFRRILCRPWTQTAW

Angiotensin AT1 = biological target: T2, Angiotensin AT1 (Homo sapiens, UniProt P30556); test: Eurofins SafetyScreen panel; type: binding
T2 construct: Eurofins (contract screening, SafetyScreen panel) PP223

Chemokine CCR2 (IL-8RB) = biological target: T3, Chemokine CCR2 (IL-8RB) (Homo sapiens, UniProt P25025); test: Eurofins SafetyScreen panel; type: binding; settings: read-out: %inh
T3 construct: purchased Eurofins (Panlabs) SafetyScreen87 Panel

Protein Tyr Kinase, LCK = biological target: T4, Protein Tyr Kinase, LCK (Homo sapiens, UniProt P06239); test: Eurofins SafetyScreen panel; type: biochemical
T4 construct: Eurofins (contract screening, SafetyScreen panel) PP223

Bradykinin B2 = biological target: T5, Bradykinin B2 (Homo sapiens, UniProt P30411); test: Eurofins SafetyScreen panel; type: binding
T5 construct: Eurofins (contract screening, SafetyScreen panel) PP223

MAO-A = biological target: T6, MAO-A (Homo sapiens, UniProt P21397); test: Eurofins SafetyScreen panel; type: biochemical
T6 construct: Eurofins

[1] = biological target: T7, Serotonin Transporter (SERT) (Homo sapiens, UniProt P31645); test: Eurofins SafetyScreen panel; type: binding
T7 construct: Eurofins (contract screening, SafetyScreen panel) PP223

5-HT2B receptors = biological target: T8, 5-HT2B receptors (Homo sapiens, UniProt P41595); test: Agonist effect at 5-HT2B receptors (HTRF, Eurofins); type: cell-based; settings: 1 μM
T8 construct: Eurofins, France
Method: Experiment was performed in duplicate at Eurofins, France.

[2] = biological target: T9, Glutamate Metabotropic, mGlu5 (Homo sapiens, UniProt P41594); test: Eurofins SafetyScreen panel; type: binding
T9 construct: purchased Eurofins (Panlabs) SafetyScreen87 Panel

Adrenergic α2A = biological target: T10, Adrenergic α2A (Homo sapiens, UniProt P08913); test: Eurofins SafetyScreen panel; type: binding
T10 construct: Eurofins (contract screening, SafetyScreen panel) PP223
T10 sequence (P08913 1-465): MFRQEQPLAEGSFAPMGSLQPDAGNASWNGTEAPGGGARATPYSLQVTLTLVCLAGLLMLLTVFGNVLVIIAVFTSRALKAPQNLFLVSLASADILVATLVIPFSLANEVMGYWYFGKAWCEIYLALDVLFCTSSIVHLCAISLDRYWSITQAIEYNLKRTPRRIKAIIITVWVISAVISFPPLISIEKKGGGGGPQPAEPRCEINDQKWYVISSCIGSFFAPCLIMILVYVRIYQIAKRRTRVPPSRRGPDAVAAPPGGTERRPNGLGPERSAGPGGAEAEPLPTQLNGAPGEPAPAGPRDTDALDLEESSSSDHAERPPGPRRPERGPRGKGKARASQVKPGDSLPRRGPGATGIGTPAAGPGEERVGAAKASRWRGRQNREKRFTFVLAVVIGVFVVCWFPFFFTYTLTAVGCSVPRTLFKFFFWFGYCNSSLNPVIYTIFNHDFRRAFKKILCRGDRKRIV

Serotonin 5-HT2A = biological target: T11, Serotonin 5-HT2A (Homo sapiens, UniProt P28223); test: Eurofins SafetyScreen panel; type: binding
T11 construct: Eurofins (contract assay)

Histamine H3 = biological target: T12, Histamine H3 (Homo sapiens, UniProt Q9Y5N1); test: Eurofins SafetyScreen panel; type: binding
T12 construct: purchased Eurofins (Panlabs) SafetyScreen87 Panel

Adrenergic α1A = biological target: T13, Adrenergic α1A (Rattus norvegicus, UniProt P43140); test: Eurofins SafetyScreen panel; type: binding
T13 construct: Eurofins (contract screening, SafetyScreen panel) PP223

GABAB1A = biological target: T14, GABAB1A (Homo sapiens, UniProt Q9UBS5); test: Eurofins SafetyScreen panel; type: binding
T14 construct: purchased Eurofins (Panlabs) SafetyScreen87 Panel

Adrenergic α1D = biological target: T15, Adrenergic α1D (Homo sapiens, UniProt P25100); test: Eurofins SafetyScreen panel; type: binding
T15 construct: Eurofins (contract screening, SafetyScreen panel) PP223

hERG potassium channel = hERG potassium channel (Homo sapiens, UniProt Q12809); test: in vitro; settings: %inh
Dopamine D2L = biological target: T16, Dopamine D2L (Homo sapiens, UniProt P14416); test: Eurofins SafetyScreen panel; type: binding
T16 construct: purchased Eurofins (Panlabs) SafetyScreen87 Panel

Serotonin 5-HT4 = biological target: T17, Serotonin 5-HT4 (Cavia porcellus, UniProt O70528); test: Eurofins SafetyScreen panel; type: binding, guinea pig
T17 construct: Eurofins (contract assay) 272000

Adrenergic β2 = biological target: T18, Adrenergic β2 (Homo sapiens, UniProt P07550); test: Eurofins SafetyScreen panel; type: binding
T18 construct: Eurofins (contract screening, SafetyScreen panel) PP223

[3] = biological target: T19, Norepinephrine Transporter (NET) (Homo sapiens, UniProt P23975); test: Eurofins SafetyScreen panel; type: binding
T19 construct: Eurofins (contract screening, SafetyScreen panel) PP223

Cannabinoid CB1 = biological target: T20, Cannabinoid CB1 (Homo sapiens, UniProt P21554); test: Eurofins SafetyScreen panel; type: binding
T20 construct: purchased Eurofins (Panlabs) SafetyScreen87 Panel

CYP2C9 = CYP2C9 (Homo sapiens, UniProt P11712); test: Cytochrome P450 inhibition (Eurofins); settings: at 10 μM; listed as 17, 10 µM
[4] = read-out: %inh, 10 μM, additional batch

T19 sequence (P23975 whole entry): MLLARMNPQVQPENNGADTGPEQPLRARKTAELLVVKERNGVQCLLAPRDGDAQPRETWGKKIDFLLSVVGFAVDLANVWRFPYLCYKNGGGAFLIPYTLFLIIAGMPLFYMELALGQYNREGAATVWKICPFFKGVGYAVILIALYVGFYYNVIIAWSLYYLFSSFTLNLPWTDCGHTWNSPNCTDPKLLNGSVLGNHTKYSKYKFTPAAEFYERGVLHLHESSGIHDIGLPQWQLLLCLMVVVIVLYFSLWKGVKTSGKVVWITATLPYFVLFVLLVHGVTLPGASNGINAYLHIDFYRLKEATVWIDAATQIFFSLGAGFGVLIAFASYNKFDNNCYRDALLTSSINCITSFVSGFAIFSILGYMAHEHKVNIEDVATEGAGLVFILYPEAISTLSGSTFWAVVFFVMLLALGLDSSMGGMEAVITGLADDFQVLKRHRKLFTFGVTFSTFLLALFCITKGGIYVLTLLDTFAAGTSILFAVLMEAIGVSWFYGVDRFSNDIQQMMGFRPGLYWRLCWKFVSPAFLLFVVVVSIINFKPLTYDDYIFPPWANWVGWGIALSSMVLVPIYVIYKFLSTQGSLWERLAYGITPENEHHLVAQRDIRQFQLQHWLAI
Chain of hERG potassium channel (Q12809 whole entry): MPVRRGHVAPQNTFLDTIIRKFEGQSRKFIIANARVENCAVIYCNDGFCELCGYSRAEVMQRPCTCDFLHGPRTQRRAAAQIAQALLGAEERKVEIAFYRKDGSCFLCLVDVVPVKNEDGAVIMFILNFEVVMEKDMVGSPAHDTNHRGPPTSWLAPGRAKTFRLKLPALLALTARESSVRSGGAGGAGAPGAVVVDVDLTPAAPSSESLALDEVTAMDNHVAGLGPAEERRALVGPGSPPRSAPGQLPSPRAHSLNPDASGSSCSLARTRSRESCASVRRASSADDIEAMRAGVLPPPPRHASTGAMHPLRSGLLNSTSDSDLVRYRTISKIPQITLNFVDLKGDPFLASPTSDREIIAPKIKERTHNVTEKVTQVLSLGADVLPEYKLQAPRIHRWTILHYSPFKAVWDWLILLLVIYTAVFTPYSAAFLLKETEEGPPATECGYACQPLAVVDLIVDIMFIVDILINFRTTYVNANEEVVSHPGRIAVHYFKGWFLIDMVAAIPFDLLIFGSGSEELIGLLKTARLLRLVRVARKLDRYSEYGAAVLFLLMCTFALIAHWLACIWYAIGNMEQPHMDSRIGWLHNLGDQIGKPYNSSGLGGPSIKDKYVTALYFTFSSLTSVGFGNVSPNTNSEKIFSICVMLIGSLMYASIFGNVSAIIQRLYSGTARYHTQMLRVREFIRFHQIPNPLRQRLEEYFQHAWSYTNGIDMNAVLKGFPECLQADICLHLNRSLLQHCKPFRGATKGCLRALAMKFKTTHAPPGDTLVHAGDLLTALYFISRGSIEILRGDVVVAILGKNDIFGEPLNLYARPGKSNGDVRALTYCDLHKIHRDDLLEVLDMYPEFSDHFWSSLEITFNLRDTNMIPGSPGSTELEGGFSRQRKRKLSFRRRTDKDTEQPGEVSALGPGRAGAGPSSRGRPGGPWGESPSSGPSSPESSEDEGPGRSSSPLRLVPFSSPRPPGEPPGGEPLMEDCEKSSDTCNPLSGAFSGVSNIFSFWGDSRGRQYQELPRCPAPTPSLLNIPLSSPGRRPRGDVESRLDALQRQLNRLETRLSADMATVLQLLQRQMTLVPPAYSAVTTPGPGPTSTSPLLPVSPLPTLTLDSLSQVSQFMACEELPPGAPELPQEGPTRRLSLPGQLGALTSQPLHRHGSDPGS
T18 sequence (P07550 whole entry): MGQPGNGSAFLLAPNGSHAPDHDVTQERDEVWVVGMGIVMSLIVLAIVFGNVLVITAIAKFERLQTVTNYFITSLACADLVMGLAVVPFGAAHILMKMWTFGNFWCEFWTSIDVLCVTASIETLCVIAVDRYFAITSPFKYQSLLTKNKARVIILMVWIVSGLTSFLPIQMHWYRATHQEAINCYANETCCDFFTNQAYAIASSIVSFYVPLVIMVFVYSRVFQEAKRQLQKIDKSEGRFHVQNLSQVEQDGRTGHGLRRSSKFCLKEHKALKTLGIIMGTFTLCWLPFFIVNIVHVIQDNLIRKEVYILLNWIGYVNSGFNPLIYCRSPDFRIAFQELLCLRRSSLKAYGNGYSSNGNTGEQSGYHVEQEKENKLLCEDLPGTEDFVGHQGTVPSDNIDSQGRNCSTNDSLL
T7 sequence (P31645 whole entry): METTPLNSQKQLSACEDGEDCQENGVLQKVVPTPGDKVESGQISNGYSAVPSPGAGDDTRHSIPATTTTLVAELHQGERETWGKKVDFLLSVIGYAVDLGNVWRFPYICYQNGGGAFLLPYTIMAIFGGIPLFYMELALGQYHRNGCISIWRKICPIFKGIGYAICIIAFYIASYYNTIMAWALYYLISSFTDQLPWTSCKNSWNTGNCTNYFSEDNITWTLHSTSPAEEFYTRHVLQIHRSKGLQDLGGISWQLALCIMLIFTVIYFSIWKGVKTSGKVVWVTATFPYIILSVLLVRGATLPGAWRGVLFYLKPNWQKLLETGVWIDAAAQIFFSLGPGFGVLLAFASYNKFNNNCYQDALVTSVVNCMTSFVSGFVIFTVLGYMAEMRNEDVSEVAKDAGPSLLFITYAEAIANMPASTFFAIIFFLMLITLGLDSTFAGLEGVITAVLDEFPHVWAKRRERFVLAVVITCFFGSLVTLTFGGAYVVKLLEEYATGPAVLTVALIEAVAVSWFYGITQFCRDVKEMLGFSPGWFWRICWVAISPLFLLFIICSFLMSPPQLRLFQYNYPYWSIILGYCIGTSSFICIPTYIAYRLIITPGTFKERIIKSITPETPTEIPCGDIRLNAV
T17 sequence (O70528 whole entry): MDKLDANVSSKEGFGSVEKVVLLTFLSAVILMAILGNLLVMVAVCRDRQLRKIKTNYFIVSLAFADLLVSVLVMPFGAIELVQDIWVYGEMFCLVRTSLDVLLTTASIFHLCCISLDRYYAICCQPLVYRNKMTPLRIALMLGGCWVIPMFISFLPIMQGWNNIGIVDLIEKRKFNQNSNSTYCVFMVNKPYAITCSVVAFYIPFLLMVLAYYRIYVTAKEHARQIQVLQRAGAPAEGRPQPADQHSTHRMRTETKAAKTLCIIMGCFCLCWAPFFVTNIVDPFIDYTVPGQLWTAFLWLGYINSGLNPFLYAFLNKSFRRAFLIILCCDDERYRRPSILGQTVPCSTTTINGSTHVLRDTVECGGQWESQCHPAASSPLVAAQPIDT
T13 sequence (P43140 whole entry): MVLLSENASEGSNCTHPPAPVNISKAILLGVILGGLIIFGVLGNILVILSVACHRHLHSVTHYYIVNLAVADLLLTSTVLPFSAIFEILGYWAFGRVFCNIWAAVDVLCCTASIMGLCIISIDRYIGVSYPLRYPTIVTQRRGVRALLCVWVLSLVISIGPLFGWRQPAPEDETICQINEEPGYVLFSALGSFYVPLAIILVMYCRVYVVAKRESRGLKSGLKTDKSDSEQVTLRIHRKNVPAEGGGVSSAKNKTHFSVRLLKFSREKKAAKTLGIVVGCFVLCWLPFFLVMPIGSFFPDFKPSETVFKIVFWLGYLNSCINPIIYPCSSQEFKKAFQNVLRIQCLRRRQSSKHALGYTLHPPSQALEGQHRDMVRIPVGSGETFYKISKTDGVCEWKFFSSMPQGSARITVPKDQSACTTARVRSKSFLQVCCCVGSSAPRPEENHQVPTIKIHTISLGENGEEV
T12 sequence (Q9Y5N1 whole entry): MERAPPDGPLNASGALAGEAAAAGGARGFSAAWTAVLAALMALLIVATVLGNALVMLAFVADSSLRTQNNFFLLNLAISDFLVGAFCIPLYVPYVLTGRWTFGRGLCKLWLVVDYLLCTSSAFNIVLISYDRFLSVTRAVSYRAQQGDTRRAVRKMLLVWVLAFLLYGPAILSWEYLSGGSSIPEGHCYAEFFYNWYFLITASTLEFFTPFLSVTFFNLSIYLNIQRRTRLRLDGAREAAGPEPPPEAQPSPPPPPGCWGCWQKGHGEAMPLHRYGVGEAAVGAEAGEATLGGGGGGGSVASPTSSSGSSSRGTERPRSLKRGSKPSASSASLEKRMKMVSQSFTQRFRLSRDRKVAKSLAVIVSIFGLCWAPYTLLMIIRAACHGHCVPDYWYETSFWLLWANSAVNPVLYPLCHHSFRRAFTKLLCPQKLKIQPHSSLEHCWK
T16 sequence (P14416 whole entry): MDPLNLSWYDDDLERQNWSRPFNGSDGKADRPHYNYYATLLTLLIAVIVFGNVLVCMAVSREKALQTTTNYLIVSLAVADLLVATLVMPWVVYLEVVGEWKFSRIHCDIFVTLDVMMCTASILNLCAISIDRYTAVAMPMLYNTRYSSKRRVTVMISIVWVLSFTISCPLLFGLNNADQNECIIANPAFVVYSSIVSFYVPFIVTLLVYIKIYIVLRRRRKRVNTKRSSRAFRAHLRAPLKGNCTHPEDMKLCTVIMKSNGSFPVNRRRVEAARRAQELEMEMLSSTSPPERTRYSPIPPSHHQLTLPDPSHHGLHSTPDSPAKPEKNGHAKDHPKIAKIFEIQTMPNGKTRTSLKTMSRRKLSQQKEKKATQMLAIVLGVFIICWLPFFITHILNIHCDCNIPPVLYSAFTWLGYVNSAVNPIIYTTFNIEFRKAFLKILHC
T2 sequence (P30556 whole entry): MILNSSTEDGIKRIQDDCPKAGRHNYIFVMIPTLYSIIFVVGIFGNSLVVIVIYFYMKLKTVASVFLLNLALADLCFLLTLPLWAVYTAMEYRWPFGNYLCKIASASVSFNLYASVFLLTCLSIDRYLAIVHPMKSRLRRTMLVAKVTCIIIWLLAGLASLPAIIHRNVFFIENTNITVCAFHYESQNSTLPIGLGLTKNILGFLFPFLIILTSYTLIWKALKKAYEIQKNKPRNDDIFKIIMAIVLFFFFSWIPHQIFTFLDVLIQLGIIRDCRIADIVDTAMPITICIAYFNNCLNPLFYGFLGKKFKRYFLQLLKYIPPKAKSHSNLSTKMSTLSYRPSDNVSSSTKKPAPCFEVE

O=S(=O)(c1cccc(F)c1)n1ccc2c(N3CCNCC3)nc3ccccc3c21 [FPPQ, 1-[(3-Fluorophenyl)sulfonyl]-4-(piperazin-1-yl)-1H-pyrrolo[3,2-c]quinoline dihydrochloride] was tested. Which “cytochrome P450 inhibition 2D6” value (CYP2D6) did it give?
The value was under 25% inh at 10 uM.

What about the IC50 (Adrenergic α2B) of the same compound?
Its IC50 is 10100 nM.

And the Ki (Adrenergic α2B)?
The Ki was 4610 nM.

What about the inhibition at 0.1 µM (Adrenergic α2B; read-out: %inh, 0.1 μM) of the same compound?
The inhibition at 0.1 µM was 1%.

And the inhibition at 1 µM (Adrenergic α2B; read-out: %inh, 1 μM)?
Its inhibition at 1 µM is -4%.

What about the inhibition at 10 µM (Adrenergic α2B; read-out: %inh, 10 μM) of the same compound?
Its inhibition at 10 µM is 43%.

What about the inhibition at 10 µM (Adrenergic α2B; [4]) of the same compound?
The inhibition at 10 µM was 53%.

And the inhibition at 100 µM (Adrenergic α2B; read-out: %inh, 100 μM)?
Its inhibition at 100 µM is 108%.

And the inhibition at 10 µM (Angiotensin AT1)?
The inhibition at 10 µM was -4%.

What about the inhibition at 10 µM (Chemokine CCR2 (IL-8RB)) of the same compound?
Its inhibition at 10 µM is 21%.

What about the inhibition at 10 µM (Protein Tyr Kinase, LCK) of the same compound?
Its inhibition at 10 µM is 6%.

What about the inhibition at 10 µM (Bradykinin B2) of the same compound?
Its inhibition at 10 µM is 0%.

What about the inhibition at 10 µM (MAO-A) of the same compound?
The inhibition at 10 µM was 12%.

What about the inhibition at 10 µM [1] of the same compound?
Its inhibition at 10 µM is 18%.

What about the “agonistic effect at 5-HT2BR” value (5-HT2B receptors) of the same compound?
The value was 3.6 % inhibition.

And the inhibition at 10 µM [2]?
Its inhibition at 10 µM is 16%.

And the IC50 (Adrenergic α2A)?
Its IC50 is 220 nM.

And the Ki (Adrenergic α2A)?
Its Ki is 110 nM.

And the inhibition at 0.01 µM (Adrenergic α2A; read-out: %inh, 10 nM)?
Its inhibition at 0.01 µM is 5%.

And the inhibition at 0.1 µM (Adrenergic α2A; read-out: %inh, 0.1 μM)?
The inhibition at 0.1 µM was 32%.

And the inhibition at 1 µM (Adrenergic α2A; read-out: %inh, 1 μM)?
Its inhibition at 1 µM is 80%.

What about the inhibition at 10 µM (Adrenergic α2A; read-out: %inh, 10 μM) of the same compound?
Its inhibition at 10 µM is 97%.

What about the inhibition at 10 µM (Adrenergic α2A; [4]) of the same compound?
The inhibition at 10 µM was 98%.

And the inhibition at 10 µM (Serotonin 5-HT2A)?
The inhibition at 10 µM was 50%.

And the inhibition at 10 µM (Histamine H3)?
The inhibition at 10 µM was 26%.

What about the inhibition at 10 µM (Adrenergic α1A) of the same compound?
The inhibition at 10 µM was 34%.

What about the inhibition at 10 µM (GABAB1A) of the same compound?
Its inhibition at 10 µM is 13%.

And the inhibition at 10 µM (Adrenergic α1D)?
The inhibition at 10 µM was 24%.

What about the inhibition at 0.01 µM (hERG potassium channel; 10 nM) of the same compound?
The inhibition at 0.01 µM was 9%.

And the inhibition at 0.1 µM (hERG potassium channel; 0.1 μM)?
Its inhibition at 0.1 µM is 9%.

And the inhibition at 1 µM (hERG potassium channel; 1 μM)?
Its inhibition at 1 µM is 32%.

And the inhibition at 10 µM (hERG potassium channel)?
Its inhibition at 10 µM is 107%.

And the inhibition at 10 µM (hERG potassium channel; additional batch)?
The inhibition at 10 µM was 101%.

What about the inhibition at 10 µM (Dopamine D2L) of the same compound?
The inhibition at 10 µM was 46%.

What about the inhibition at 10 µM (Serotonin 5-HT4) of the same compound?
Its inhibition at 10 µM is 30%.

And the IC50 (Adrenergic β2)?
Its IC50 is 120 nM.

What about the Ki (Adrenergic β2) of the same compound?
Its Ki is 85 nM.

And the inhibition at 0.01 µM (Adrenergic β2; 10 nM)?
The inhibition at 0.01 µM was 9%.

What about the inhibition at 0.1 µM (Adrenergic β2; 0.1 μM) of the same compound?
Its inhibition at 0.1 µM is 43%.

And the inhibition at 1 µM (Adrenergic β2; 1 μM)?
Its inhibition at 1 µM is 93%.

And the inhibition at 10 µM (Adrenergic β2)?
Its inhibition at 10 µM is 103%.

And the inhibition at 10 µM (Adrenergic β2; additional batch)?
Its inhibition at 10 µM is 99%.

And the IC50 [3]?
Its IC50 is 1250 nM.

What about the Ki [3] of the same compound?
Its Ki is 1240 nM.

What about the inhibition at 0.01 µM ([3]; read-out: %inh, 10 nM) of the same compound?
The inhibition at 0.01 µM was 1%.

What about the inhibition at 0.1 µM ([3]; read-out: %inh, 0.1 μM) of the same compound?
Its inhibition at 0.1 µM is 8%.

What about the inhibition at 1 µM ([3]; read-out: %inh, 1 μM) of the same compound?
Its inhibition at 1 µM is 42%.

And the inhibition at 10 µM ([3]; read-out: %inh, 10 μM)?
Its inhibition at 10 µM is 94%.

And the inhibition at 10 µM [3, 4]?
Its inhibition at 10 µM is 96%.

And the inhibition at 10 µM (Cannabinoid CB1)?
The inhibition at 10 µM was 35%.

What about the “cytochrome P450 inhibition 2C9” value (CYP2C9) of the same compound?
Its value is under 25% inh at 10 uM.

Source: paper PMC8474115 (Journal of Medicinal Chemistry, 2021)
